Reference: patent US9546156B2, “N-bicyclic aryl,N'-pyrazolyl urea, thiourea, guanidine cyanoguanidine compounds as TrkA kinase inhibitors” (Array BioPharma Inc., priority 2012, dated 2017)

Legend:
Assay in all cases: Off-target kinase profiling (KinaseProfiler)
Type in all cases: biochemical
Settings in all cases: 10 μM, ATP near Km
ARK5 = biological target: T1, ARK5 (Homo sapiens, UniProt O60285)
T1 construct: purchased Millipore, Inc. (KinaseProfiler service)
Method in brief: (§1)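 Duplicate reactions per kinase contained 10 μM compound and ATP at approximately the enzyme-specific Km; the mean remaining activity, given as percent of control, is listed.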

Abl-P = biological target: T2, Abl-P (Homo sapiens, UniProt P00519)
T2 construct: purchased Millipore, Inc. (KinaseProfiler service)
Method in brief: as §1

CAMK1 = biological target: T3, CAMK1 (Homo sapiens, UniProt Q14012)
T3 construct: purchased Millipore, Inc. (KinaseProfiler service)
Method in brief: as §1

CK2 = biological target: T4, CK2 (Homo sapiens, UniProt P68400)
T4 construct: purchased Millipore, Inc. (KinaseProfiler service)
Method in brief: as §1

CLK2 = biological target: T5, CLK2 (Homo sapiens, UniProt P49760)
T5 construct: purchased Millipore, Inc. (KinaseProfiler service)
Method in brief: as §1

EphA2 = biological target: T6, EphA2 (Homo sapiens, UniProt P29317)
T6 construct: purchased Millipore, Inc. (KinaseProfiler service)
Method in brief: as §1

EphA3 = biological target: T7, EphA3 (Homo sapiens, UniProt P29320)
T7 construct: purchased Millipore, Inc. (KinaseProfiler service)
Method in brief: as §1

EphB4 = biological target: T8, EphB4 (Homo sapiens, UniProt P54760)
T8 construct: purchased Millipore, Inc. (KinaseProfiler service)
Method in brief: as §1

ErbB4 = biological target: T9, ErbB4 (Homo sapiens, UniProt Q15303)
T9 construct: purchased Millipore, Inc. (KinaseProfiler service)
Method in brief: as §1

FAK2 = biological target: T10, FAK2 (Homo sapiens, UniProt Q14289)
T10 construct: purchased Millipore, Inc. (KinaseProfiler service)
Method in brief: as §1

Fes = biological target: T11, Fes (Homo sapiens, UniProt P07332)
T11 construct: purchased Millipore, Inc. (KinaseProfiler service)
Method in brief: as §1

Fgr = biological target: T12, Fgr (Homo sapiens, UniProt P09769)
T12 construct: purchased Millipore, Inc. (KinaseProfiler service)
Method in brief: as §1

Flt4 = biological target: T13, Flt4 (Homo sapiens, UniProt P35916)
T13 construct: purchased Millipore, Inc. (KinaseProfiler service)
Method in brief: as §1

Fms = biological target: T14, Fms (Homo sapiens, UniProt P07333)
T14 construct: purchased Millipore, Inc. (KinaseProfiler service)
Method in brief: as §1

GSK3beta = biological target: T15, GSK3beta (Homo sapiens, UniProt P49841)
T15 construct: purchased Millipore, Inc. (KinaseProfiler service)
Method in brief: as §1

IGF-1R Activated = biological target: T16, IGF-1R Activated (Homo sapiens, UniProt P08069)
T16 construct: purchased Millipore, Inc. (KinaseProfiler service)
Method in brief: as §1

IKKbeta = biological target: T17, IKKbeta (Homo sapiens, UniProt O14920)
T17 construct: purchased Millipore, Inc. (KinaseProfiler service)
Method in brief: as §1

IRAK4 = biological target: T18, IRAK4 (Homo sapiens, UniProt Q9NWZ3)
T18 construct: purchased Millipore, Inc. (KinaseProfiler service)
Method in brief: as §1

IRR = biological target: T19, IRR (Homo sapiens, UniProt P14616)
T19 construct: purchased Millipore, Inc. (KinaseProfiler service)
Method in brief: as §1

JNK2alpha2 = biological target: T20, JNK2alpha2 (Homo sapiens, UniProt P45984)
T20 construct: purchased Millipore, Inc. (KinaseProfiler service)
Method in brief: as §1

KDR = biological target: T21, KDR (Homo sapiens, UniProt P35968)
T21 construct: purchased Millipore, Inc. (KinaseProfiler service)
Method in brief: as §1

KIT = biological target: T22, KIT (Homo sapiens, UniProt P10721)
T22 construct: purchased Millipore, Inc. (KinaseProfiler service)
Method in brief: as §1

Lyn = biological target: T23, Lyn (Homo sapiens, UniProt P07948)
T23 construct: purchased Millipore, Inc. (KinaseProfiler service)
Method in brief: as §1

MRCKbeta = biological target: T24, MRCKbeta (Homo sapiens, UniProt Q9Y5S2)
T24 construct: purchased Millipore, Inc. (KinaseProfiler service)
Method in brief: as §1

NEK11 = biological target: T25, NEK11 (Homo sapiens, UniProt Q8NG66)
T25 construct: purchased Millipore, Inc. (KinaseProfiler service)
Method in brief: as §1

NEK6 = biological target: T26, NEK6 (Homo sapiens, UniProt Q9HC98)
T26 construct: purchased Millipore, Inc. (KinaseProfiler service)
Method in brief: as §1

PKCbetaII = biological target: T27, PKCbetaII (Homo sapiens, UniProt P05771)
T27 construct: purchased Millipore, Inc. (KinaseProfiler service)
Method in brief: as §1

PKCiota = biological target: T28, PKCiota (Homo sapiens, UniProt P41743)
T28 construct: purchased Millipore, Inc. (KinaseProfiler service)
Method in brief: as §1

PKD2 = biological target: T29, PKD2 (Homo sapiens, UniProt Q9BZL6)
T29 construct: purchased Millipore, Inc. (KinaseProfiler service)
Method in brief: as §1

PTK6 = biological target: T30, PTK6 (Homo sapiens, UniProt Q13882)
T30 construct: purchased Millipore, Inc. (KinaseProfiler service)
Method in brief: as §1

Plk1 = biological target: T31, Plk1 (Homo sapiens, UniProt P53350)
T31 construct: purchased Millipore, Inc. (KinaseProfiler service)
Method in brief: as §1

Plk3 = biological target: T32, Plk3 (Homo sapiens, UniProt Q9H4B4)
T32 construct: purchased Millipore, Inc. (KinaseProfiler service)
Method in brief: as §1

Rsk1 = biological target: T33, Rsk1 (Homo sapiens, UniProt Q15418)
T33 construct: purchased Millipore, Inc. (KinaseProfiler service)
Method in brief: as §1

Rsk3 = biological target: T34, Rsk3 (Homo sapiens, UniProt Q15349)
T34 construct: purchased Millipore, Inc. (KinaseProfiler service)
Method in brief: as §1

SGK2 = biological target: T35, SGK2 (Homo sapiens, UniProt Q9HBY8)
T35 construct: purchased Millipore, Inc. (KinaseProfiler service)
Method in brief: as §1

SRC = biological target: T36, SRC (Homo sapiens, UniProt P12931)
T36 construct: purchased Millipore, Inc. (KinaseProfiler service)
Method in brief: as §1

SRPK2 = biological target: T37, SRPK2 (Homo sapiens, UniProt P78362)
T37 construct: purchased Millipore, Inc. (KinaseProfiler service)
Method in brief: as §1

TAO2 = biological target: T38, TAO2 (Homo sapiens, UniProt Q9UL54)
T38 construct: purchased Millipore, Inc. (KinaseProfiler service)
Method in brief: as §1

TEC Activated = biological target: T39, TEC Activated (Homo sapiens, UniProt P42680)
T39 construct: purchased Millipore, Inc. (KinaseProfiler service)
Method in brief: as §1

ZAP-70 = biological target: T40, ZAP-70 (Homo sapiens, UniProt P43403)
T40 construct: purchased Millipore, Inc. (KinaseProfiler service)
Method in brief: as §1

p38alpha = biological target: T41, p38alpha (Homo sapiens, UniProt Q16539)
T41 construct: purchased Millipore, Inc. (KinaseProfiler service)
Method in brief: as §1

p38gamma = biological target: T42, p38gamma (Homo sapiens, UniProt P53778)
T42 construct: purchased Millipore, Inc. (KinaseProfiler service)
Method in brief: as §1

T25 sequence (Q8NG66 whole entry): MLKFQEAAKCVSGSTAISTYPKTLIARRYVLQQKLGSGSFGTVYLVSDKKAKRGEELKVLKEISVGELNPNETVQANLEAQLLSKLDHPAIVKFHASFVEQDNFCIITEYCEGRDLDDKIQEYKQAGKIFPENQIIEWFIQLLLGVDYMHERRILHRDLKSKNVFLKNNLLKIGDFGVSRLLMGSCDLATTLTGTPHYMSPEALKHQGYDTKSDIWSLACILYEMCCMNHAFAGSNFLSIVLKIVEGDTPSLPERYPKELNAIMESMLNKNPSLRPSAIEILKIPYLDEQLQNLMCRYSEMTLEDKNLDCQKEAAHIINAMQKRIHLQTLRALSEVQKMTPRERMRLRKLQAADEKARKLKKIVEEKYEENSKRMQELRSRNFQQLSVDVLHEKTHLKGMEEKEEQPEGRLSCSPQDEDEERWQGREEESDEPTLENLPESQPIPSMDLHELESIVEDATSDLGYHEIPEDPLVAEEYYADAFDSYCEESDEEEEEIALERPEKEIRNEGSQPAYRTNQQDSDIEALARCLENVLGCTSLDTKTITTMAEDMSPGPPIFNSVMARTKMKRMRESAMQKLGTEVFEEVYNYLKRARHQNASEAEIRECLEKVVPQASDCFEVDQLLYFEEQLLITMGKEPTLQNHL
T39 sequence (P42680 whole entry): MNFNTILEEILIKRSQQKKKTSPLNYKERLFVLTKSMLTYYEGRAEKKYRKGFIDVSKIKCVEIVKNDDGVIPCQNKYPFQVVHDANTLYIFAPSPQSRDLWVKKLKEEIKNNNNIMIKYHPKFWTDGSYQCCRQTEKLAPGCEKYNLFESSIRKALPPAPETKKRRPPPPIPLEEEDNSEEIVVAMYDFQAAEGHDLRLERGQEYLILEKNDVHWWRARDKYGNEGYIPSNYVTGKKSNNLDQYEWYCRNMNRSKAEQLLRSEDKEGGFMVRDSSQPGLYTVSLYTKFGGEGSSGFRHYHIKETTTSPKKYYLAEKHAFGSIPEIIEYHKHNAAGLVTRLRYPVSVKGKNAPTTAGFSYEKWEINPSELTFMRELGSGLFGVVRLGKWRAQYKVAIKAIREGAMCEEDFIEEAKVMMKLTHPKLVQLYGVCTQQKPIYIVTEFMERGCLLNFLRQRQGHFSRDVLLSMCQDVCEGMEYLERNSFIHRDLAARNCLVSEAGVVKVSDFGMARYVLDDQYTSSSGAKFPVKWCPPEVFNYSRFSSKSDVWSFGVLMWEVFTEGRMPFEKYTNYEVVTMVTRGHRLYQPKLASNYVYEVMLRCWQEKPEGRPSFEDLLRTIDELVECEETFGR
T15 sequence (P49841 whole entry): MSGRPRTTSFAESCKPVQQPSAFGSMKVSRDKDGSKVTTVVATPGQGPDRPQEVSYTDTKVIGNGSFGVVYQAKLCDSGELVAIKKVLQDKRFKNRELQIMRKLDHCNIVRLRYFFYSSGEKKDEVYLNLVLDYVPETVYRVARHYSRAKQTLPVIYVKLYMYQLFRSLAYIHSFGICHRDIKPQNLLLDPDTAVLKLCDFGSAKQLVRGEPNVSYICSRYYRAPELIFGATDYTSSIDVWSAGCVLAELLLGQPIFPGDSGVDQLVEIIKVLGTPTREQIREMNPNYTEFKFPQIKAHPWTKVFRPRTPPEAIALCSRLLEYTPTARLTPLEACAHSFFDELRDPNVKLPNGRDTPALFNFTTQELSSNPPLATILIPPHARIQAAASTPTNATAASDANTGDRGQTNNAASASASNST
T14 sequence (P07333 20-972): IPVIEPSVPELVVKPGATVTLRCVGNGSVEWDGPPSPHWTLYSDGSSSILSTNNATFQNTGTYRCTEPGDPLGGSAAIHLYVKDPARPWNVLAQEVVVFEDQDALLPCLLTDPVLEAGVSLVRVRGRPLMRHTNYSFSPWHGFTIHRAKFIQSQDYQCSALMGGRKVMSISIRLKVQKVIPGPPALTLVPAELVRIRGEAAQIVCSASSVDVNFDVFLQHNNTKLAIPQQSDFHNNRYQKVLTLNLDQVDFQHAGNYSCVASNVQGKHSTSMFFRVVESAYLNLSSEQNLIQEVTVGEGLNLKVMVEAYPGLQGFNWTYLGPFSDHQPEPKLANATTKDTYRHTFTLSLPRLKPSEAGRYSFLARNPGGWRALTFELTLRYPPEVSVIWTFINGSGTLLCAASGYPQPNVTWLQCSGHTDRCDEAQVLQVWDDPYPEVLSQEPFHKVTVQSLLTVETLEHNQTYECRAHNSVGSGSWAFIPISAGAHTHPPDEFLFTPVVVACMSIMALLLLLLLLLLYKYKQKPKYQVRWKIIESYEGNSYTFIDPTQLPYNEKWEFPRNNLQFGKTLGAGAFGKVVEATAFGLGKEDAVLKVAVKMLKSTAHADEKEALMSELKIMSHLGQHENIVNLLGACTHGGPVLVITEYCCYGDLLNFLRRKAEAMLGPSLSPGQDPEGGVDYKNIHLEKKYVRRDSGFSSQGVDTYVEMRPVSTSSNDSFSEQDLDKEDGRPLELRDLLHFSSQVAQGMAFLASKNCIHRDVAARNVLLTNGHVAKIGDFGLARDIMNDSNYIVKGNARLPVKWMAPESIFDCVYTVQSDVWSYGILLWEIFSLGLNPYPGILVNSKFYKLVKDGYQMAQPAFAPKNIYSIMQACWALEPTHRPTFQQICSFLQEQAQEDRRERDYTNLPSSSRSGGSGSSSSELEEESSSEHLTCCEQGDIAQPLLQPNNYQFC
T1 sequence (O60285 whole entry): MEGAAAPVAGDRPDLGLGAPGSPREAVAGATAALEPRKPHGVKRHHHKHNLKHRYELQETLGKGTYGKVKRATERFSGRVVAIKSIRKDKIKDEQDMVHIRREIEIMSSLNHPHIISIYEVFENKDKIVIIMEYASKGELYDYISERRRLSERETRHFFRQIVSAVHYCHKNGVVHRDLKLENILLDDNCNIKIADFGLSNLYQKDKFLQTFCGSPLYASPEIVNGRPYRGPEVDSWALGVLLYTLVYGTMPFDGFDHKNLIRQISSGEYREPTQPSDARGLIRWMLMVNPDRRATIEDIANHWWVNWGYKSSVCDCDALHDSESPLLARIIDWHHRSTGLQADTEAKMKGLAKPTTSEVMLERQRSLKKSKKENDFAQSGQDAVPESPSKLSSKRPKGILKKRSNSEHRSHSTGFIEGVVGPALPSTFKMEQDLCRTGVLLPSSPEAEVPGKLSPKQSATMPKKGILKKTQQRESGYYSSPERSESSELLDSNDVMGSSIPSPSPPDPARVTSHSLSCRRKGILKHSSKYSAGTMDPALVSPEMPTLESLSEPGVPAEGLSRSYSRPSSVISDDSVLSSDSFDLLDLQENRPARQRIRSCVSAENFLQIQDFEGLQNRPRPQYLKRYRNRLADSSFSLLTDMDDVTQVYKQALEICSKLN
T26 sequence (Q9HC98 whole entry): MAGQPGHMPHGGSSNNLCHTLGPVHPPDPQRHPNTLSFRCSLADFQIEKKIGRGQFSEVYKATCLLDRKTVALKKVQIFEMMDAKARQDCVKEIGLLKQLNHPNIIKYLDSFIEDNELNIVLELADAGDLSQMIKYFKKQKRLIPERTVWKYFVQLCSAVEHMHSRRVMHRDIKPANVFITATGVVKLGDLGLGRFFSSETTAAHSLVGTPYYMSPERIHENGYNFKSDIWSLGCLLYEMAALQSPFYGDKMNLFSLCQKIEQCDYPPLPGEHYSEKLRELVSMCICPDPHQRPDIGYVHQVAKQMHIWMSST
T13 sequence (P35916 25-1363): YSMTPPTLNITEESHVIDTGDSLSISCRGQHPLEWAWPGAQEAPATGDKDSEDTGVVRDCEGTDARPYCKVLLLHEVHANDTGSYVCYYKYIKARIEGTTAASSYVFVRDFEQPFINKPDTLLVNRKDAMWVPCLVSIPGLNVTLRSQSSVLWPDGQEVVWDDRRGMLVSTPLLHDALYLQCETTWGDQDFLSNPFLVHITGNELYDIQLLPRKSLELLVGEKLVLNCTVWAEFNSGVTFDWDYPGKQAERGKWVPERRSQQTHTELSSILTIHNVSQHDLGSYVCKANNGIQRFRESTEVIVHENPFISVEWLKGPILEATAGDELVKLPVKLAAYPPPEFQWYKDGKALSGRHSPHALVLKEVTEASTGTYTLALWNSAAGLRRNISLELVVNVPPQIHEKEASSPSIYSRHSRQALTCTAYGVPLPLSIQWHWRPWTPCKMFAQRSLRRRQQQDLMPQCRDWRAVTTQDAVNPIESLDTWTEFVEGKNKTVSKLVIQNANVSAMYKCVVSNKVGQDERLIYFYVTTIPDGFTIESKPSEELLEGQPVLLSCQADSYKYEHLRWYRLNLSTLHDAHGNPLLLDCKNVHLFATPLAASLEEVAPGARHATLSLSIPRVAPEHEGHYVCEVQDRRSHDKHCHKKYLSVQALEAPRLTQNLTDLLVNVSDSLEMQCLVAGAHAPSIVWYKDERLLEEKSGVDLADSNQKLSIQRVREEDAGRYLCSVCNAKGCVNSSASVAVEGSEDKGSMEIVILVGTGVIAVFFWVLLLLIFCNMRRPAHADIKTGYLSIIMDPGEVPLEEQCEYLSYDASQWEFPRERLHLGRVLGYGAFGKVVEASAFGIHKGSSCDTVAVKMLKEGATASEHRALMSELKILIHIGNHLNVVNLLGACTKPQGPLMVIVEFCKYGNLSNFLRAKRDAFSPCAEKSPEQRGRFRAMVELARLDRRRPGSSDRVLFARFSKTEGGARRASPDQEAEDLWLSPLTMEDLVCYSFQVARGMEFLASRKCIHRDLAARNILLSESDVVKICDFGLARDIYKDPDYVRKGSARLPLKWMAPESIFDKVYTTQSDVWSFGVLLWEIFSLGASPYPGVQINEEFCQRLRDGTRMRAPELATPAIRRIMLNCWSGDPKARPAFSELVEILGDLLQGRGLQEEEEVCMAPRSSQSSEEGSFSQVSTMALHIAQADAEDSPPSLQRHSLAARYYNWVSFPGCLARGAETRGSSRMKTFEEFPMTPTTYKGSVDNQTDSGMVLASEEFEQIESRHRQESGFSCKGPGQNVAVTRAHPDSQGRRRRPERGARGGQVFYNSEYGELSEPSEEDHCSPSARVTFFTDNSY

COCc1ccc2cccc(NC(=O)Nc3c(C)c(-c4cnn(C)c4)nn3-c3ccccc3)c2c1 [Example 16, 1-(1′,4-dimethyl-1-phenyl-1H,1′H-[3,4′-bipyrazol]-5-yl)-3-(7-(methoxymethyl)naphthalen-1-yl)urea]
Avg POC (ARK5): 103.5 POC
Avg POC (Abl-P): 147 POC
Avg POC (CAMK1): 106 POC
Avg POC (CK2): 114.5 POC
Avg POC (CLK2): 135 POC
Avg POC (EphA2): 123.5 POC
Avg POC (EphA3): 139.5 POC
Avg POC (EphB4): 145.5 POC
Avg POC (ErbB4): 118 POC
Avg POC (FAK2): 117.5 POC
Avg POC (Fes): 117.5 POC
Avg POC (Fgr): 116 POC
Avg POC (Flt4): 108 POC
Avg POC (Fms): 125.5 POC
Avg POC (GSK3beta): 212 POC
Avg POC (IGF-1R Activated): 101 POC
Avg POC (IKKbeta): 130.5 POC
Avg POC (IRAK4): 175.5 POC
Avg POC (IRR): 102.5 POC
Avg POC (JNK2alpha2): 126.5 POC
Avg POC (KDR): 159 POC
Avg POC (KIT): 93.5 POC
Avg POC (Lyn): 112 POC
Avg POC (MRCKbeta): 119 POC
Avg POC (NEK11): 116 POC
Avg POC (NEK6): 120 POC
Avg POC (PKCbetaII): 106.5 POC
Avg POC (PKCiota): 109 POC
Avg POC (PKD2): 106 POC
Avg POC (PTK6): 114.5 POC
Avg POC (Plk1): 95 POC
Avg POC (Plk3): 103.5 POC
Avg POC (Rsk1): 226.5 POC
Avg POC (Rsk3): 106.5 POC
Avg POC (SGK2): 147.5 POC
Avg POC (SRC): 121.5 POC
Avg POC (SRPK2): 105.5 POC
Avg POC (TAO2): 119.5 POC
Avg POC (TEC Activated): 121.5 POC
Avg POC (ZAP-70): 118 POC
Avg POC (p38alpha): 117 POC
Avg POC (p38gamma): 116 POC
